Assays:
Assay in all cases: Test D pre-/postemergence plant response
Assay type in all cases: in vivo
[1] = test system: field bindweed (Convolvulus arvensis)
How it was run: (§1)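 Pre + post applications; loam/sand soil; solvent + surfactant vehicle; post-em plants 1- to 4-leaf (2–18 cm); greenhouse 14–21 d; visual score 0 (none) to 100 (full control) vs untreated.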

[2] = test system: Italian ryegrass (Lolium multiflorum)
How it was run: as §1

[3] = test system: goosegrass (Eleusine indica)
How it was run: as §1

[4] = test system: mallow (common mallow, Malva sylvestris)
How it was run: as §1

[5] = test system: johnsongrass (Sorghum halepense)
How it was run: as §1

[6] = test system: green foxtail (Setaria viridis)
How it was run: as §1

[7] = test system: sandbur (southern sandbur, Cenchrus echinatus)
How it was run: as §1

[8] = test system: groundsel (common groundsel, Senecio vulgaris); conditions: Postemergence
How it was run: as §1

[9] = test system: bermudagrass (Cynodon dactylon)
How it was run: as §1

[10] = test system: prickly sida (Sida spinosa)
How it was run: as §1

[11] = test system: naked crabgrass (Digitaria nuda)
How it was run: as §1

[12] = test system: ragweed (common ragweed, Ambrosia elatior)
How it was run: as §1

[13] = test system: quackgrass (Elytrigia repens)
How it was run: as §1

[14] = test system: dayflower (Virginia (VA) dayflower, Commelina virginica)
How it was run: as §1

[15] = test system: bluegrass (annual bluegrass, Poa annua)
How it was run: as §1

[16] = Postemergence, 16 g ai/ha, scale 0 to 100
[17] = Postemergence, 31 g ai/ha, scale 0 to 100
[18] = Postemergence, 125 g ai/ha, scale 0 to 100 (0 no effect, 100 complete control)
[19] = Postemergence, 62 g ai/ha, scale 0 to 100 (0 no effect, 100 complete control)
[20] = Preemergence, 16 g ai/ha, scale 0 to 100, 0 no effect, 100 complete control
[21] = Preemergence, 31 g ai/ha, scale 0 to 100 (0 no effect, 100 complete control)
[22] = Preemergence, 62 g ai/ha, scale 0 to 100
[23] = Preemergence, 125 g ai/ha, scale 0 to 100
[24] = Postemergence, 31 g ai/ha, scale 0 to 100 (0 no effect, 100 complete control)

O=C1CCCC(O)=C1C(=O)c1cnc(-c2cccs2)n(-c2ccccc2)c1=O [Compound 66]
Plant response rating, Field Bindweed [1, 16]: 0 | Plant response rating, Field Bindweed [1, 17]: 0 | Plant response rating, Field Bindweed [1, 18]: 0 | Plant response rating, Field Bindweed [1, 19]: 0 | Plant response rating, Field Bindweed [1, 20]: 0 | Plant response rating, Field Bindweed [1, 21]: 0 | Plant response rating, Field Bindweed [1, 22]: 0 | Plant response rating, Field Bindweed [1, 23]: 20 | Plant response rating, Ryegrass, Italian [2, 16]: 0 | Plant response rating, Ryegrass, Italian [2, 17]: 0 | Plant response rating, Ryegrass, Italian [2, 18]: 15 | Plant response rating, Ryegrass, Italian [2, 19]: 0 | Plant response rating, Ryegrass, Italian [2, 20]: 0 | Plant response rating, Ryegrass, Italian [2, 21]: 0 | Plant response rating, Ryegrass, Italian [2, 23]: 0 | Plant response rating, Goosegrass [3, 16]: 50 | Plant response rating, Goosegrass [3, 17]: 50 | Plant response rating, Goosegrass [3, 18]: 75 | Plant response rating, Goosegrass [3, 19]: 65 | Plant response rating, Goosegrass [3, 20]: 0 | Plant response rating, Goosegrass [3, 21]: 0 | Plant response rating, Goosegrass [3, 22]: 30 | Plant response rating, Goosegrass [3, 23]: 50 | Plant response rating, Mallow [4, 16]: 25 | Plant response rating, Mallow [4, 17]: 30 | Plant response rating, Mallow [4, 18]: 60 | Plant response rating, Mallow [4, 19]: 60 | Plant response rating, Mallow [4, 20]: 0 | Plant response rating, Mallow [4, 21]: 0 | Plant response rating, Mallow [4, 22]: 5 | Plant response rating, Mallow [4, 23]: 75 | Plant response rating, Johnsongrass [5, 16]: 0 | Plant response rating, Johnsongrass [5, 17]: 20 | Plant response rating, Johnsongrass [5, 18]: 60 | Plant response rating, Johnsongrass [5, 19]: 50 | Plant response rating, Johnsongrass [5, 20]: 0 | Plant response rating, Johnsongrass [5, 21]: 0 | Plant response rating, Johnsongrass [5, 22]: 0 | Plant response rating, Johnsongrass [5, 23]: 30 | Plant response rating, Foxtail, Green [6, 16]: 20 | Plant response rating, Foxtail, Green [6, 17]: 35 | Plant response rating, Foxtail, Green [6, 18]: 80 | Plant response rating, Foxtail, Green [6, 19]: 65 | Plant response rating, Foxtail, Green [6, 20]: 0 | Plant response rating, Foxtail, Green [6, 21]: 0 | Plant response rating, Foxtail, Green [6, 22]: 0 | Plant response rating, Foxtail, Green [6, 23]: 5 | Plant response rating, Sandbur [7, 17]: 35 | Plant response rating, Sandbur [7, 18]: 90 | Plant response rating, Sandbur [7, 19]: 35 | Plant response rating, Sandbur [7, 20]: 0 | Plant response rating, Sandbur [7, 21]: 5 | Plant response rating, Sandbur [7, 23]: 80 | Plant response rating, Groundsel ([8]; 31 g ai/ha, scale 0 to 100): 60 | Plant response rating, Groundsel ([8]; 125 g ai/ha, scale 0 to 100 (0 no effect, 100 complete control)): 80 | Plant response rating, Groundsel ([8]; 62 g ai/ha, scale 0 to 100 (0 no effect, 100 complete control)): 80 | Plant response rating, Bermudagrass [9, 16]: 5 | Plant response rating, Bermudagrass [9, 24]: 50 | Plant response rating, Bermudagrass [9, 18]: 65 | Plant response rating, Bermudagrass [9, 19]: 65 | Plant response rating, Bermudagrass [9, 20]: 0 | Plant response rating, Bermudagrass [9, 21]: 0 | Plant response rating, Bermudagrass [9, 22]: 5 | Plant response rating, Bermudagrass [9, 23]: 5 | Plant response rating, Prickly Sida [10, 17]: 98 | Plant response rating, Prickly Sida [10, 18]: 98 | Plant response rating, Prickly Sida [10, 19]: 98 | Plant response rating, Prickly Sida [10, 20]: 0 | Plant response rating, Prickly Sida [10, 21]: 0 | Plant response rating, Prickly Sida [10, 22]: 5 | Plant response rating, Prickly Sida [10, 23]: 90 | Plant response rating, Crabgrass, Naked [11, 17]: 50 | Plant response rating, Crabgrass, Naked [11, 18]: 70 | Plant response rating, Crabgrass, Naked [11, 19]: 65 | Plant response rating, Crabgrass, Naked [11, 20]: 0 | Plant response rating, Crabgrass, Naked [11, 21]: 0 | Plant response rating, Crabgrass, Naked [11, 22]: 10 | Plant response rating, Crabgrass, Naked [11, 23]: 25 | Plant response rating, Ragweed [12, 16]: 0 | Plant response rating, Ragweed [12, 17]: 0 | Plant response rating, Ragweed [12, 18]: 5 | Plant response rating, Ragweed [12, 19]: 0 | Plant response rating, Ragweed [12, 20]: 0 | Plant response rating, Ragweed [12, 21]: 0 | Plant response rating, Ragweed [12, 23]: 0 | Plant response rating, Quackgrass [13, 16]: 0 | Plant response rating, Quackgrass [13, 17]: 5 | Plant response rating, Quackgrass [13, 18]: 5 | Plant response rating, Quackgrass [13, 19]: 5 | Plant response rating, Quackgrass [13, 20]: 0 | Plant response rating, Quackgrass [13, 21]: 0 | Plant response rating, Quackgrass [13, 23]: 0 | Plant response rating, Dayflower, VA [14, 16]: 0 | Plant response rating, Dayflower, VA [14, 17]: 0 | Plant response rating, Dayflower, VA [14, 18]: 30 | Plant response rating, Dayflower, VA [14, 19]: 0 | Plant response rating, Dayflower, VA [14, 20]: 0 | Plant response rating, Dayflower, VA [14, 21]: 0 | Plant response rating, Dayflower, VA [14, 22]: 0 | Plant response rating, Dayflower, VA [14, 23]: 5 | Plant response rating, Bluegrass [15, 16]: 0 | Plant response rating, Bluegrass [15, 24]: 0 | Plant response rating, Bluegrass [15, 18]: 0 | Plant response rating, Bluegrass [15, 19]: 0 | Plant response rating, Bluegrass [15, 20]: 0 | Plant response rating, Bluegrass [15, 21]: 0 | Plant response rating, Bluegrass [15, 22]: 0 | Plant response rating, Bluegrass [15, 23]: 0

Source: patent publication US8952024B2, “Herbicidal pyrimidone derivatives” (E I du Pont de Nemours and Company, priority 2009, dated 2015)
